Experimental data from EP4640674A1, “CRYSTAL FORMS OF ETHOXIMOD, PREPARATION METHOD THEREFOR AND USE THEREOF” (Jiankuan (Suzhou) Biotechnology Co., Ltd, priority 2022, dated 2024).
“And” between values parts separate entries of the source, which are not always exact repeats. Equal entries are not always repeated.

Experiments:
Format in all cases: physicochemical
[1] = Dynamic solubility at 37 °C (HPLC; residual solid by XRPD); conditions: for solubility at 1 h / solubility at 2 h / solubility at 4 h / solubility at 24 h: thermodynamic from solid
Method: Samples of the crystal form A and the crystal form B of ethoximod were taken and prepared into saturated solutions at 37 °C in Fasted State Simulated Intestinal Fluid (FaSSIF, pH = 8.0), Fed State Simulated Intestinal Fluid (FeSSIF, pH = 5.0), Simulated Gastric Fluid (SGF, pH = 1.0), a hydrochloric acid aqueous solution (pH = 1.0), an acetic acid-sodium acetate buffer system (pH = 4.0), a phosphate buffer system (pH = 6.8) and water. After 1 h/2 h/4 h/24 h, filtration was performed to obtain solutions, and actual concentrations of the samples in the solutions were measured through high-performance liquid chromatography (HPLC) (diluting the filtrates as needed). Crystal forms of the solids before and after the experiment were characterized through XRPD to check whether phase transition had occurred. Table 4 Comparison of solubility of crystal form A and crystal form B

[2] = Mechanical stability: grinding, XRPD before and after; conditions: ground with an agate mortar for 5 min; hydrochloride
Method: 50 mg crystal form A of ethoximod and 50 mg crystal form B of ethoximod were weighed and ground clockwise with an agate mortar for 5 min, and the samples before and after the grinding were subjected to an XRPD test.

[3] = Adhesion test in ziplock bag; conditions: ziplock bag flipped at 5 rpm, 10 min in each direction; hydrochloride
Method: Each of the crystal form A and the crystal form B of ethoximod was taken and put into a ziplock bag with a fixed size. A seal was sealed, and the ziplock bag was flipped at a rotation speed of 5 rpm for 10 min. A direction was changed, and the ziplock bag continued to be flipped at a fixed rotation speed for 10 min. Raw materials were poured out from the bag, a mass of the remaining raw materials was weighed accurately, and an adhesion rate was calculated.

[4] = Microscopic morphology and particle size; conditions: optical microscope, 40× objective lens; hydrochloride
Excerpt: Samples of the crystal form A and the crystal form B of ethoximod were subjected to microscopic morphological researches. The morphology and particle sizes of the crystal form A and the crystal form B were observed under a 40× objective lens of an optical microscope. The crystal form A is irregular and plate-shaped with a raw material particle size of below 35 µm and a long/short diameter ratio of 1 to 2. The crystal form B aggregates and becomes spherical with a raw material particle size of below 20 µm.

[5] = Dynamic vapor sorption (hygroscopicity)
Excerpt: In the examples of the present application, the instrument used for the X-ray powder diffraction test is the D2 Phaser produced by Bruker. The instrument used for the differential scanning calorimetry test is the differential scanning calorimeter DSC 250 produced by TA Instruments. The instrument used for the thermogravimetric analysis is the thermogravimetric analyzer TGA 55 produced by TA Instruments. The instrument used for the FT-IR test is the Fourier infrared spectrometer ID1-summit produced by Thermo. The instrument used for the dynamic vapor sorption test is the DVS Intrinsic produced by Surface Measurement Systems (SMS). The instrument used for the microscopy is the microscope NJF-120A produced by Suzhou Nanguang Electronic Technology Co., Ltd.
Samples of the crystal form A and the crystal form B of ethoximod were taken for a dynamic vapor sorption test.

[6] = Solid-state stability on storage (crystal form by XRPD, purity); conditions: for Crystal Form after storage / main purity after storage / maximum single impurity after storage: 30 days exposed
Method: Samples were taken before and after storage, and crystal forms were measured through XRPD. […] Table 3 Comparison of solid-state stability of crystal form A and crystal form B

[7] = Compressibility: tableting evaluation; conditions: punch die with a diameter of 6 mm, hydrochloride
Method: The crystal form A and the crystal form B of ethoximod were taken for preparation tableting evaluation. In this experiment, samples were subjected to tableting under the same pressure by using a punch die with a diameter of 6 mm, radial crushing forces F, diameters D and thicknesses L of the tablets were measured after the elastic recovery of the tablets, and the tensile strength of the tablets was calculated according to the following formula: tensile strength Ts = 2F/ΠDL.

[8] = Angle of repose test (flowability); conditions: hydrochloride
Method: Powder properties of active pharmaceutical ingredients affect the flowability of the active pharmaceutical ingredients. The crystal form A and the crystal form B of ethoximod was subjected to angle of repose and Hausner ratio tests to compare the flowability of the crystal form A and the crystal form B of ethoximod. […] In this experiment, angles of repose of active pharmaceutical ingredients of the two crystal forms were measured through an injection method in combination with a residual cone method, and the flowability of the active pharmaceutical ingredients of the two crystal forms was analyzed. Specific operations are as follows: powders were injected into a center of a disc with a limited diameter, the injection was stopped until materials on an oblique side of a powder accumulation layer automatically flew out along an edge of the disc, a height (H) of a cone was measured, and the angle of repose was calculated according to the diameter (D = 2r) of the disc with tanQ = H/r.

crystal form of the solid ([1]; FaSSIF (pH = 8.0), 37 °C, 1 h, hydrochloride): A+free alkali | crystal form of the solid ([1]; FaSSIF (pH = 8.0), 37 °C, 2 h, hydrochloride): A+free alkali | crystal form of the solid ([1]; FaSSIF (pH = 8.0), 37 °C, 4 h, hydrochloride): A+free alkali | crystal form of the solid ([1]; FaSSIF (pH = 8.0), 37 °C, 24 h, hydrochloride): A+free alkali | solubility at 1 h ([1]; Fasted State Simulated Intestinal Fluid (FaSSIF), 37 °C, pH 8, fassif, FaSSIF (pH = 8.0), 1 h): 10 µg/mL | solubility at 2 h ([1]; Fasted State Simulated Intestinal Fluid (FaSSIF), 37 °C, pH 8, fassif, FaSSIF (pH = 8.0), 2 h): 9 µg/mL | solubility at 4 h ([1]; Fasted State Simulated Intestinal Fluid (FaSSIF), 37 °C, pH 8, fassif, FaSSIF (pH = 8.0), 4 h): 11 µg/mL | solubility at 24 h ([1]; Fasted State Simulated Intestinal Fluid (FaSSIF), 37 °C, pH 8, fassif, FaSSIF (pH = 8.0), 24 h): 26 µg/mL | solubility ([1]; FeSSIF (pH = 5.0), 37 °C, 4 h, hydrochloride): 2520 µg/mL | solubility at 1 h ([1]; Fed State Simulated Intestinal Fluid (FeSSIF), 37 °C, pH 5, fessif, FeSSIF (pH = 5.0), 1 h): 1540 µg/mL | solubility at 2 h ([1]; Fed State Simulated Intestinal Fluid (FeSSIF), 37 °C, pH 5, fessif, FeSSIF (pH = 5.0), 2 h): 2000 µg/mL | solubility at 24 h ([1]; Fed State Simulated Intestinal Fluid (FeSSIF), 37 °C, pH 5, fessif, FeSSIF (pH = 5.0), 24 h): 2670 µg/mL | solubility at 1 h ([1]; Simulated Gastric Fluid (SGF), 37 °C, pH 1, simulated gastric fluid, SGF (pH = 1.0), 1 h): 240 µg/mL | solubility at 2 h ([1]; Simulated Gastric Fluid (SGF), 37 °C, pH 1, simulated gastric fluid, SGF (pH = 1.0), 2 h): 260 µg/mL | solubility at 4 h ([1]; Simulated Gastric Fluid (SGF), 37 °C, pH 1, simulated gastric fluid, SGF (pH = 1.0), 4 h): 260 µg/mL | solubility at 24 h ([1]; Simulated Gastric Fluid (SGF), 37 °C, pH 1, simulated gastric fluid, SGF (pH = 1.0), 24 h): 270 µg/mL | solubility at 1 h ([1]; acetic acid-sodium acetate buffer, 37 °C, pH 4, aqueous buffer, acetic acid-sodium acetate buffer pH = 4.0, 37 °C, 1 h): 2490 µg/mL | solubility at 2 h ([1]; acetic acid-sodium acetate buffer, 37 °C, pH 4, aqueous buffer, acetic acid-sodium acetate buffer pH = 4.0, 37 °C, 2 h): 2480 µg/mL | solubility at 4 h ([1]; acetic acid-sodium acetate buffer, 37 °C, pH 4, aqueous buffer, acetic acid-sodium acetate buffer pH = 4.0, 37 °C, 4 h): 2740 µg/mL | solubility at 24 h ([1]; acetic acid-sodium acetate buffer, 37 °C, pH 4, aqueous buffer, acetic acid-sodium acetate buffer pH = 4.0, 37 °C, 24 h): 2590 µg/mL | solubility at 1 h ([1]; hydrochloric acid aqueous solution, 37 °C, pH 1, simulated gastric fluid, hydrochloric acid aqueous solution pH = 1.0, 37 °C, 1 h): 280 µg/mL | solubility at 2 h ([1]; hydrochloric acid aqueous solution, 37 °C, pH 1, simulated gastric fluid, hydrochloric acid aqueous solution pH = 1.0, 37 °C, 2 h): 280 µg/mL | solubility at 4 h ([1]; hydrochloric acid aqueous solution, 37 °C, pH 1, simulated gastric fluid, hydrochloric acid aqueous solution pH = 1.0, 37 °C, 4 h): 290 µg/mL | solubility at 24 h ([1]; hydrochloric acid aqueous solution, 37 °C, pH 1, simulated gastric fluid, hydrochloric acid aqueous solution pH = 1.0, 37 °C, 24 h): 380 µg/mL | crystal form of the solid ([1]; phosphate buffer pH = 6.8, 37 °C, 1 h): free alkali | solubility ([1]; phosphate buffer pH = 6.8, 37 °C, 1 h, hydrochloride): 0.2 µg/mL | crystal form of the solid ([1]; phosphate buffer pH = 6.8, 37 °C, 2 h): free alkali | crystal form of the solid ([1]; phosphate buffer pH = 6.8, 37 °C, 4 h): free alkali | crystal form of the solid ([1]; phosphate buffer pH = 6.8, 37 °C, 24 h): free alkali | solubility ([1]; phosphate buffer pH = 6.8, 37 °C, 24 h, hydrochloride): 0.76 µg/mL | solubility at 2 h ([1]; phosphate buffer, 37 °C, pH 6.8, aqueous buffer, phosphate buffer pH = 6.8, 37 °C, 2 h): 0.07 µg/mL | solubility at 4 h ([1]; phosphate buffer, 37 °C, pH 6.8, aqueous buffer, phosphate buffer pH = 6.8, 37 °C, 4 h): 0.14 µg/mL | solubility at 1 h ([1]; water, 37 °C, 1 h): 2080 µg/mL | solubility at 2 h ([1]; water, 37 °C, 2 h): 2150 µg/mL | solubility at 4 h ([1]; water, 37 °C, 4 h): 2140 µg/mL | solubility at 24 h ([1]; water, 37 °C, 24 h): 2260 µg/mL | crystal form after grinding (XRPD) [2]: remains unchanged | Adhesion Amount Per Unit Area [3]: 0.002 g/m^2 | Weight of API Adsorbed in Bag [3]: 0.1053 g | raw material particle size [4]: below 35 µm | vapor sorption weight gain ([5]; 24.3 °C and 90% RH): 0.14% | hygroscopic weight gain (vapor sorption) ([5]; 25 °C/90% RH, hydrochloride): 0.14% | hygroscopicity ([5]; DVS, 90% RH, hydrochloride): no or almost no hygroscopicity | crystal form after the dynamic vapor sorption test (XRPD) ([5]; after DVS test, hydrochloride): not subjected to crystal transformation | change in main purity ([6]; 40 °C/75% RH, 60 °C and 92.5% RH for 30 days): no significant change | time the crystal form is stable (XRPD) ([6]; 60 °C, 92.5% RH, light and 45 °C/75% RH): at least 30 days | Crystal Form after storage ([6]; At 40 °C/75% RH, hydrochloride): crystal form A | main purity after storage ([6]; At 40 °C/75% RH, hydrochloride): 98.88 A% | maximum single impurity after storage ([6]; At 40 °C/75% RH, hydrochloride): 0.35 A% | Crystal Form after storage ([6]; At 60 °C, hydrochloride): crystal form A | main purity after storage ([6]; At 60 °C, hydrochloride): 98.82 A% | maximum single impurity after storage ([6]; At 60 °C, hydrochloride): maximum single impurity: 0.35 A% | Crystal Form after storage ([6]; At 92.5% RH, hydrochloride): crystal form A | main purity after storage ([6]; At 92.5% RH, hydrochloride): 98.86 A% | maximum single impurity after storage ([6]; At 92.5% RH, hydrochloride): maximum single impurity: 0.35 A% | Crystal Form after storage ([6]; In light, hydrochloride): crystal form A | main purity after storage ([6]; In light, hydrochloride): 97.79 A% | maximum single impurity after storage ([6]; In light, hydrochloride): maximum single impurity: 0.34 A% | main purity ([6]; before storage, hydrochloride): 98.84 A% | maximum single impurity ([6]; before storage, hydrochloride): 0.40 A% | change in main purity ([6]; light for 30 days, hydrochloride): slightly decreased | Radial Crushing Force F (Hardness/N) ([7]; tablet): 5 N and 3 N | Experimental Phenomenon ([7]; tableting): slight sticking | Average of Angles of Repose [8]: 57.2 ° | Angle of Repose ([8]; single determination): 56.3 ° and 58.0 °
Compound: CCc1nc(-c2ccc(-c3ccc(CCC(N)(CO)CO)cc3)cc2)co1.Cl [crystal form A, 2-amino-2-{2-(4'-(2-ethyloxazol-4-yl)-[1,1'-biphenyl]-4-yl)ethyl}-1,3-propylene glycol hydrochloride]
